Patent US8415312B2, “Compound which is a nystatin derivative” (Biosergen AS, priority 2007, dated 2013)
≈ marks a conversion by molar mass, not a printed value. Where “and” joins values, the source holds several entries; their conditions need not be identical. Equal values may be shown once.

What was measured:
[1] = system: Aspergillus niger ATCC 16404; test: Antifungal susceptibility study (1), broth microdilution MIC; assay type: cell-based; settings: lowest concentration preventing any visible growth, read at 48 hours, 35° C., RPMI 1640 pH 7.0
In short: (§1)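 Broth microdilution was run at pH 7.0 with compounds diluted from DMSO solutions and mixed 1:1 with conidial inoculum. Spore suspensions were adjusted to OD530 0.09-0.11 for A. niger or 0.15-0.17 for F. oxysporum, then diluted 1:50. Plates were incubated at 35° C without agitation, and MIC was read at 48 hours as absence of visible growth.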

[2] = system: Fusarium oxysporum VKM F-140; test: as above; assay type: cell-based; settings: lowest concentration preventing any visible growth, read at 48 hours, 35° C., RPMI 1640 pH 7.0
In short: as §1

[3] = system: mice (C57B1/6xDBA/2)F1 B6D2F1; settings: single injection into tail vein, probit analysis
In short: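 Male B6D2F1 mice, 20-22 g, given one tail-vein injection of antibiotic suspended with sodium deoxycholate in phosphate buffer, within 1-1.5 h of preparation. Doses spanned 0% to 100% lethality with at least 3 intermediate doses, in randomized groups of 6 mice.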

[4] = system: Candida albicans (strain 14053 ATCC); test: Model of the candidiasis sepsis of mice, kidney burden; assay type: in vivo; settings: for Candida albicans burden in kidneys (Mean): day 5, n=3 mice
Protocol: In experiments used female mice of hybrids of first generation (C57B1/6xDBA/2)F1 (B6D2F1), weight 18-20 g., received from the Central farm “Kryukovo” of Russian Academies of Medical Science (RAMS). Animals were maintained in Institute' vivarium in plastic cages (with hardwood bedding in environmentally controlled room: 24±1° C., 12/12 hours light/dark cycle) on a standard diet of bricketed forages with an easy approach to drinking water (ad libitum). After 2-week quarantine healthy animals were used in experimental work.
A preparation of comparison was amphotericin B (pure). Solutions of tested preparations prepared ex tempore by the technique specified by the customer.
Animals were housed on 3 mice and infected intravenously with culture Candida albicans in a doze 1.0 million CFU/mouse in volume of 0.1 ml. It is necessary to note, that doze Candida albicans remained a constant in all experiments. In 30 minutes after infection to mice carried out the first intravenous introduction of tested preparations in corresponding dozes in volume of 0.2 ml (with a speed of 0.2 ml/30 second).
Experiment has been planned in such a manner that in each experiment one doze (both for amphotericin B was used, and for tested preparations), each doze entered daily within four days, since day of infection (0, 1, 2 and 3 days). At each experiment there was a group untreated, infected with Candida albicans animals. Also there was a group “placebo”, intact (not infected) animals, which intravenously (in the same volume as medical preparations) injected 0.2 ml of solvent—phosphatic buffer +5% glucose (1:1).
On the post challenge 5th day of experiment, mice were weighed and euthanized (killed) by a cervical dislocation. Then, in sterile conditions, Candida albicans burdens were determined by viable counting of homogenates from the kidneys. The kidneys, which were removed aseptically and weighed, pounded in porcelain mortars with sterile corundum, did dilutions of the received suspensions and sowed on Petri dishes with agar Saburo, incubated for 48 hours at temperature 35° C., then counted up developed colonies Candida albicans and recalculated their quantity on 1 g of kidney' tissue. The first dilution was 10^−1. Zero result at this cultivation accepted for 5 CFU/g.
For the basic criterion of an assessment of the investigated preparations the maximal effect of the Amphotricin B was accepted (effective dose, ED).
For significant accepted distinctions of average at P≦0.05 at comparison by Student t-criterion.

[5] = system: Candida albicans ATCC 10231; test: Antifungal susceptibility study (2), MIC50 by OD490 growth; assay type: cell-based; settings: 50% growth inhibition from regression curve, M19 medium without NaCl, 30° C.
Protocol: The anti-fungal activity of several of the nystatin derivatives was further investigated. […] The anti-fungal activity of a number of the nystatin derivatives was therefore determined in a method which is designed to be more sensitive.
The test organism used for the further testing of polyene macrolide bioactivity was Candida albicans ATCC 10231, grown in 120 μl of standard M19 medium without NaCl (with an inoculum of 1000 cfu per well) and 30 μl of diluted polyene macrolide samples. The antibiotics were diluted in MeOH in series ensuring a spectrum of concentrations which yielded results ranging from complete growth inhibition to no inhibition of the test organism. The test organism cultures with antibiotic dilutions were incubated in 96-well microtiter plates at 30° C. without shaking, and growth was measured as OD490 after 12, 14 and 16 hours on a SpectraMax Plus microtiter plate reader. OD was plotted against antibiotic concentration, and MIC50 was estimated from the regression curve at 50% growth inhibition.

[6] = dose 0.16 mg/kg/d i.v. for four days
[7] = dose 0.62 mg/kg/d i.v. for four days
[8] = dose 1.25 mg/kg/d i.v. for four days
[9] = dose 2.5 mg/kg/d i.v. for four days
[10] = dose 0.08 mg/kg/d i.v. for four days
[11] = dose 0.31 mg/kg/d i.v. for four days

SMILES | MIC Aspergillus niger ATCC 16404 [1] | MIC Fusarium oxysporum VKM F-140 [2] [µg/mL] | LD50 [3] [mg/kg] | MTD [3] [mg/kg] | Candida albicans burden in kidneys (Mean) [4, 6] [CFU/g] | Candida albicans burden in kidneys (Mean) [4, 7] [CFU/g] | Candida albicans burden in kidneys (Mean) [4, 8] [CFU/g] | Candida albicans burden in kidneys (Mean) [4, 9] [CFU/g] | Candida albicans burden in kidneys (Mean) ([4]; dose 5 mg/kg/d i.v. for four days, zero result accepted for 5 CFU/g) [CFU/g] | MIC50 [5] [µg/mL] | MIC Aspergillus niger ATCC 16404 ([1]; listed as Comp 1) [µg/mL] | dose of maximal activity as % from MTD ([4]; 1.25 mg/kg/d) | Candida albicans burden in kidneys (Mean) [4, 10] [CFU/g] | Candida albicans burden in kidneys (Mean) [4, 11] [CFU/g] | dose of maximal activity (effective dose, ED) ([4]; highest studied dose, criterion of activity) [mg/kg/day]
CC1C=CC=CC=CC=CC=CC=CC=CC(OC2OC(C)C(O)C(N)C2O)CC2OC(O)(CC(O)C(O)CCC(O)CC(O)CC(O)CC(=O)OC(C)C(C)C1O)CC(O)C2C.NC(CCC(=O)O)C(=O)O [Compound 29, Compound 1 L-glutamate] | 2 µg/mL | 2 | 17.8 | 11.0 | 102667 | 12500 | 2557 | 133 | 5 | – | – | – | – | – | –
CC1C=CC=CC=CC=CC=CC=CC=CC(OC2OC(C)C(O)C(N)C2O)CC2OC(O)(CC(O)C(O)CCC(O)CC(O)CC(O)CC(=O)OC(C)C(C)C1O)CC(O)C2C(=O)NCCCN(C)C (centres unmarked) [Compound 11, S44HP DMAP Amide] | 2 µg/mL (≈ 1.98 µM) | 2 (≈ 1.98 µM) | 16.4 | 11.9 | – | – | – | – | – | 0.12 (≈ 0.119 µM) | – | – | – | – | –
CC1C=CC=CC=CC=CC=CC=CC=CC(OC2OC(C)C(O)C(N)C2O)CC2OC(O)(CC(O)C(O)CCC(O)CC(O)CC(O)CC(=O)OC(C)C(C)C1O)CC(O)C2C (centres unmarked) [Compound 1] | 1 µg/mL and 2 µg/mL | 2 (≈ 2.24 µM) | 15.4 | 7.8 | – | – | – | – | – | 0.07 (≈ 0.0783 µM) | 2 (≈ 2.24 µM) | – | – | – | –
C[C@@H]1[C@H](O)[C@@H](C)/C=C/C=C/C=C/C=C/C=C/C=C/C=C/[C@H](O[C@@H]2O[C@H](C)[C@@H](O)[C@H](N)[C@@H]2O)C[C@@H]2O[C@](O)(C[C@@H](O)C[C@@H](O)[C@H](O)CC[C@@H](O)C[C@@H](O)CC(=O)O[C@H]1C)C[C@H](O)[C@H]2C(=O)O [Amphotericin B, reference compound] | 1 µg/mL (≈ 1.08 µM) | 4 (≈ 4.33 µM) | 2.8 | 2.01 | 85667 | 10667 | 1667 | – | – | 0.12 (≈ 0.13 µM) | – | ≈ 62% | 105000 | 34667 | 1.25
CC1O[C@@H](O[C@H]2/C=C/C=C/C=C/C=C/C=C/C=C/C=C/[C@H](C)[C@@H](O)[C@@H](C)[C@H](C)OC(=O)C[C@H](O)C[C@H](O)C[C@H](O)CC[C@@H](O)[C@H](O)C[C@]3(O)C[C@H](O)[C@@H](C)[C@H](C2)O3)[C@H](O)C(NC(=O)[C@@H](N)CCCCN)[C@@H]1O (stereo partly drawn) [Compound 51, N-L-Lysyl-Compound 1] | 1 µg/mL (≈ 0.978 µM) | 2 (≈ 1.96 µM) | 5.3 | 4.48 | – | 17833 | 9400 | 5 | – | – | – | – | 56667 | 22667 | –
